Measurements published in ChEMBL document CHEMBL4368936, “Discovery and structure-activity relationship study of phthalimide-phenylpyridine conjugate as inhibitor of Wnt pathway” (Bioorg Med Chem Lett, 2019).

Tests used:
Mus musculus = species on record: Mus musculus; assay: Inhibition of Wnt/beta-catenin pathway in mouse L Wnt3A cells at 10 uM after 48 hrs by TOP-flash dual reporter gene assay relative to control; assay type: cell-based
[1] = Inhibition of Wnt/beta-catenin pathway in mouse L Wnt3A cells after 48 hrs by TOP-flash dual reporter gene assay; assay type: cell-based; conditions: L Wnt-3A

Row | SMILES | inhibition (Mus musculus) [%] | IC50 [1] [nM]
1 | O=C(CCCN1C(=O)c2c(F)ccc(F)c2C1=O)Nc1ccc(-c2ccccc2)cn1 | 37 | –
2 | Cc1cccc2c1C(=O)N(CCC(=O)Nc1ccc(-c3ccccc3)cn1)C2=O | 29 | > 10000
3 | O=C(CCCN1C(=O)c2cccc([N+](=O)[O-])c2C1=O)Nc1ccc(-c2ccccc2)cn1 | 17 | –
4 | O=C(CCCN1C(=O)c2ccc(F)c(F)c2C1=O)Nc1ccc(-c2ccccc2)cn1 | 21 | –
5 | O=C(CCCN1C(=O)c2ccc(Cl)cc2C1=O)Nc1ccc(-c2ccccc2)cn1 | 22 | –
6 | Cc1cc(-c2ncc(CC(=O)Nc3ccc(-c4cnccn4)cn3)cc2C)ccn1 [WNT-974] | 93 | 0.57
7 | O=C(CCCN1C(=O)c2ccc(F)cc2C1=O)Nc1ccc(-c2ccccc2)cn1 | 20 | –
8 | O=C(CCCN1C(=O)c2ccccc2C1=O)Nc1ccc(-c2ccccc2)cn1 | 34 | –
9 | O=C(CCCN1C(=O)c2cccc(F)c2C1=O)Nc1ccc(-c2ccccc2)cn1 | 44 | –
10 | O=C(CCCN1C(=O)c2c(Cl)c(Cl)c(Cl)c(Cl)c2C1=O)Nc1ccc(-c2ccccc2)cn1 | -5 | –
11 | Cc1cccc2c1C(=O)N(C(C)C(=O)Nc1ccc(-c3ccccc3)cn1)C2=O (stereo not given) | 39 | > 10000
12 | O=C(CCCN1C(=O)c2ccc(Br)cc2C1=O)Nc1ccc(-c2ccccc2)cn1 | 18 | –
13 | O=C(CCCN1C(=O)c2cccc(Cl)c2C1=O)Nc1ccc(-c2ccccc2)cn1 | 46 | –
14 | CC(C)(C)c1ccc2c(c1)C(=O)N(CCCC(=O)Nc1ccc(-c3ccccc3)cn1)C2=O | 23 | –
15 | O=C(CCCN1C(=O)c2ccc(C#Cc3ccccc3)cc2C1=O)Nc1ccc(-c2ccccc2)cn1 | 7 | –
16 | O=C(CCCN1C(=O)c2cc(Cl)c(Cl)cc2C1=O)Nc1ccc(-c2ccccc2)cn1 | -8 | –
17 | O=C(CCCN1C(=O)c2ccc([N+](=O)[O-])cc2C1=O)Nc1ccc(-c2ccccc2)cn1 | 19 | –
18 | Cc1ccc2c(c1)C(=O)N(CCCC(=O)Nc1ccc(-c3ccccc3)cn1)C2=O | 20 | –
19 | Cc1cccc2c1C(=O)N(CC(=O)Nc1ccc(-c3ccccc3)cn1)C2=O | 76 | 280
20 | Cc1cccc2c1C(=O)N(CCCC(=O)Nc1ccc(-c3ccccc3)cn1)C2=O | 61 | 2790
